Measured values taken from ChEMBL document CHEMBL5725500, “Substituted spiropiperidinyl compounds useful as GPR120 agonists” (2017).
pEC50: −log10 of the molar value.

Molecular target: T1, Free fatty acid receptor 4 (Homo sapiens, UniProt Q5NUL3)
T1 sequence (Q5NUL3 whole entry): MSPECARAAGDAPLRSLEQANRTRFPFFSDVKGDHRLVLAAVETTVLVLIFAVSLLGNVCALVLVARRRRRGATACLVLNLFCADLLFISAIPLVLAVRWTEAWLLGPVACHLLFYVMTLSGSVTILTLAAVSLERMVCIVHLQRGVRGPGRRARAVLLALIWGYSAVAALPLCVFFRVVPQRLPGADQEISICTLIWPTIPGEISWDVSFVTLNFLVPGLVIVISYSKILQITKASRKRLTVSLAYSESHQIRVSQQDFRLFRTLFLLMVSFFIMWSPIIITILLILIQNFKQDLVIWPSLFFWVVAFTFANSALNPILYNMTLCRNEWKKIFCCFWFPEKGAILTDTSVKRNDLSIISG
Assay: FLIPR Assay: On the day before the measurement day, CHO cells expressing human GPR120 were plated at 10000 cells per well in a 384-well black plate (#3702, Corning) and incubated overnight in a CO2 incubator. On the day of the measurement, 4 μM Fluo-4 AM (fluorescence calcium indicator reagent) was incubated to be introduced into the human GPR120 expression CHO cells in the presence of 0.08% Pluronic F-127 in a CO2 incubator for 90 minutes. To the cells was added the test compound diluted with HBSS solution containing 20 mM HEPES and 2.5 mM probenecid. Variations in the intracellular calcium concentration were measured by Fluorescence Imaging Plate Reader (FLIPR; Molecular Devices) to examine the agonist action, and EC50 values were calculated.
Type: cell-based

pEC50	Structure (SMILES)
5.37	Cc1cccc(Oc2ccc(C#N)c(N3CCC4(CCC(CC(=O)O)CC4)CC3)c2)n1
5.30	Cc1ccnc(Oc2ccc(C#N)c(N3CCC4(CCC(CC(=O)O)CC4)CC3)c2)c1
5.92	O=C(O)CC1CCC2(CCN(c3cc(OC(F)(F)F)ccc3F)CC2)OC1 (configuration not stated)
5.49	O=C(O)C[C@@H]1CCC2(CCN(c3cc(OC4CCC4)ccc3F)CC2)OC1
5.62	COc1cc(F)cc(N2CCC3(CC2)CC(CC(=O)O)CO3)c1 (configuration not stated)
5.78	O=C(O)C[C@H]1CCC2(CCN(c3cc(OC4CCC4)ccc3Cl)CC2)OC1
6.33	OCCC1CCC2(CC1)CCN(c1cc(OC(F)(F)F)ccc1Cl)CC2
